Data set [1] addresses T1, CGI-58 (Homo sapiens, UniProt Q8WTS1, S237E/W19A/W23A/W27A).
T1 sequence (Q8WTS1 1-349 W19A/W23A/W27A/S237E): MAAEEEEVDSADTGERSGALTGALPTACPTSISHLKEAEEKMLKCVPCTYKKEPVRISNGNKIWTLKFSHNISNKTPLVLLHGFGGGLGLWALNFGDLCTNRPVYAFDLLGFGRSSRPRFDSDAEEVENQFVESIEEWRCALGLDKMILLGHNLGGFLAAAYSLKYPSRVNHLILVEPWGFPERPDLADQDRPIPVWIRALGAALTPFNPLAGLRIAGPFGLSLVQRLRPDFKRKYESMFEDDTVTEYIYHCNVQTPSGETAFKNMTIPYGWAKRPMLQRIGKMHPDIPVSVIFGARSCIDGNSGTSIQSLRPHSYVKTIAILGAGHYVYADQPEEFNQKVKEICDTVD
The data set is described as follows: intrinsic tryptophan fluorescence quenching, […] protein, […] °C. The data set is classed as binding.

Data set [2] concerns the molecule itself. Put plainly: SEC.

Residue numbers refer to the chain shown, from its start.

In the case of `CCCCCCCC/C=C\CCCCCCCC(=O)SCCNC(=O)CCNC(=O)[C@H](O)C(C)(C)COP(=O)(O)OP(=O)(O)OC[C@H]1O[C@@H](n2cnc3c(N)ncnc32)[C@H](O)[C@@H]1OP(=O)(O)O` [oleoyl-CoA], binding in data set [1] was characterised by a dissociation constant (Kd) of 2.3 ± 0.3 µM.

B1: human CGI-58 (Comparative Gene Identification-58) wild-type protein (natural protein, UniProt Q8WTS1 1-349, looked up)
chain: T1 sequence (Q8WTS1 1-349 W19A/W23A/W27A/S237E) with A19W, A23W, A27W, E237S
As to B1, the binding result in data set [2] is on record as “binds”.

For orientation: Kd means the concentration at which binding is half-saturated.

Values taken from PMC9026008 (ACS Omega, 2022).
